Test results published in the NIST ThermoML archive (doi:10.1021/je060222y).
“And” between values parts separate entries of the source, which are not always exact repeats. Equal entries are not always repeated. ± gives the expanded uncertainty stated by the source.

Key:
[1] = molar heat capacity at constant pressure; conditions: 101.33 kPa, Liquid, Small sample (50 mg) DSC
[2] = Molar enthalpy of transition or fusion; conditions: Crystal
[3] = for mass density: 101.33 kPa, Liquid; for Triple point temperature: Crystal

CCCC[n+]1ccn(C)c1.O=S(=O)([N-]S(=O)(=O)C(F)(F)F)C(F)(F)F
Conditions | mass density, [3] | molar heat capacity at constant pressure, [1]
278.15 K | 1454.98 ± 1.7 kg/m3 and 1453.33 ± 1.7 kg/m3 | –
283.15 K | 1450.16 ± 1.7 kg/m3 and 1448.52 ± 1.7 kg/m3 | 558.99 ± 8.7 J/K/mol and 559.63 ± 8.7 J/K/mol
288.15 K | 1445.33 ± 1.7 kg/m3 and 1443.69 ± 1.7 kg/m3 | 561.29 ± 8.7 J/K/mol and 562.05 ± 8.7 J/K/mol
293.15 K | 1440.51 ± 1.7 kg/m3 and 1438.89 ± 1.6 kg/m3 | 564.02 ± 8.7 J/K/mol and 564.58 ± 8.8 J/K/mol
298.15 K | 1435.73 ± 1.7 kg/m3 and 1434.1 ± 1.6 kg/m3 | 566.47 ± 8.8 J/K/mol and 567.33 ± 8.8 J/K/mol
303.15 K | 1430.94 ± 1.7 kg/m3 and 1429.31 ± 1.6 kg/m3 | 569.01 ± 8.8 J/K/mol and 569.74 ± 8.8 J/K/mol
308.15 K | 1426.17 ± 1.6 kg/m3 and 1424.54 ± 1.6 kg/m3 | 572.11 ± 8.9 J/K/mol and 572.82 ± 8.9 J/K/mol
313.15 K | 1421.4 ± 1.6 kg/m3 and 1419.78 ± 1.6 kg/m3 | 575.03 ± 8.9 J/K/mol and 575.56 ± 8.9 J/K/mol
318.15 K | 1416.66 ± 1.6 kg/m3 and 1415.04 ± 1.6 kg/m3 | 577.84 ± 8.9 J/K/mol and 578.49 ± 9 J/K/mol
323.15 K | 1411.94 ± 1.6 kg/m3 and 1410.31 ± 1.6 kg/m3 | 581.06 ± 9 J/K/mol and 581.68 ± 9 J/K/mol
328.15 K | 1407.23 ± 1.6 kg/m3 and 1405.6 ± 1.6 kg/m3 | 584.36 ± 9.1 J/K/mol and 584.82 ± 9.1 J/K/mol
333.15 K | 1402.55 ± 1.6 kg/m3 and 1400.92 ± 1.5 kg/m3 | –

Conditions | Molar enthalpy of transition or fusion | Triple point temperature
[2] | 5.36 kcal/mol and 5.86 kcal/mol | –
[3] | – | 268.51 ± 0.77 K and 267.61 ± 0.77 K

CCCCn1cc[n+](C)c1.F[P-](F)(F)(F)(F)F [1-butyl-3-methylimidazolium hexafluorophosphate]
Conditions | Molar enthalpy of transition or fusion, [2] [kcal/mol] | mass density, [3] [kg/m3] | molar heat capacity at constant pressure, [1] [J/K/mol]
283.15 K | – | 1379.14 ± 1.5 | 400.9 ± 6.2
288.15 K | – | 1374.83 ± 1.4 | 402.32 ± 6.2
293.15 K | – | 1370.43 ± 1.4 | 404.97 ± 6.3
298.15 K | – | 1366.12 ± 1.4 | 407.66 ± 6.3
303.15 K | – | 1361.76 ± 1.4 | 410.33 ± 6.4
308.15 K | – | 1357.52 ± 1.4 | 413.14 ± 6.4
313.15 K | – | 1353.35 ± 1.4 | 415.98 ± 6.4
318.15 K | – | 1349.16 ± 1.4 | 418.91 ± 6.5
323.15 K | – | 1345.02 ± 1.4 | 421.88 ± 6.5
DSC | 4.76 ± 0.139 | – | –

Conditions | Triple point temperature [K]
[3] | 280.03 ± 0.77
